tested on: Hamster; assay: Lipid lowering effect in hamster assessed as reduction in total cholesterol level in serum at 100 mg/kg, po bid administered at 9 a.m and 4 p.m for 14 days relative to control; assay type: functional, Cricetinae; set-up: scale not given: the % may be the effect or the level left; settings: time 14 day

Row | Structure (SMILES) | Activity [%]
1 | COc1cccc([C@H]2O[C@H](CC(=O)N3CCC(CC(=O)O)CC3)C(=O)N(CC(C)(C)CO)c3ccc(Cl)cc32)c1OC | 2

molecular target: T1, Squalene synthase (Rattus norvegicus, UniProt Q02769); assay: Inhibition of squalene synthase in rat liver microsomes using [3H] farnesyl pyrophosphate as substrate preincubated for 10 mins followed by substrate addition and measured after 30 mins by liquid scintillation counter analysis; set-up: species or system Microsome; settings: not given
T1 sequence (Q02769 whole entry): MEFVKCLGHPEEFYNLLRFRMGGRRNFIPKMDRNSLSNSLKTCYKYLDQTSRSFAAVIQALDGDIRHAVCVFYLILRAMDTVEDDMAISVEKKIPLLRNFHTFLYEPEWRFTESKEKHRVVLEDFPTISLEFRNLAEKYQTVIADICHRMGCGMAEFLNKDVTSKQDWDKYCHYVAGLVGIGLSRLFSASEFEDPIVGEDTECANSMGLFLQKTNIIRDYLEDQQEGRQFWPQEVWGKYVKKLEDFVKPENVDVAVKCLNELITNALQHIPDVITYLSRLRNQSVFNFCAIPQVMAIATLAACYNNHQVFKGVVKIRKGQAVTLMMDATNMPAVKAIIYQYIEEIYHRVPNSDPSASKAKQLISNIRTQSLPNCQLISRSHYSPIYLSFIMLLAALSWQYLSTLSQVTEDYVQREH

Row | Structure (SMILES) | IC50 [nM]
2 | COc1ccccc1C1OCCCN(C(=O)C(=O)O)CC(=O)N(CC(C)(C)C)c2ccc(Cl)cc21 (centres undefined) | ≥ 260
3 | COc1ccccc1C1OCCN([C@H]2CC[C@@H](C(=O)O)CC2)C(=O)CC(=O)N(CC(C)(C)C)c2ccc(Cl)cc21 (some centres undefined) | 450
4 | COc1ccccc1C1OCCN([C@H]2CC[C@H](C(=O)O)CC2)C(=O)CC(=O)N(CC(C)(C)C)c2ccc(Cl)cc21 (some centres undefined) | 23
5 | CCOC(=O)C1CCC(N2CCOC(c3ccccc3OC)c3cc(Cl)ccc3N(CC(C)(C)C)C(=O)CC2=O)CC1 (centres undefined) | 30
6 | CCOC(=O)C1CCN(C(=O)CN2CC(=O)N(CC(C)(C)C)c3ccc(Cl)cc3C(c3ccccc3OC)OCCC2=O)CC1 (centres undefined) | > 600
7 | COc1ccccc1C1OCCN([C@H]2CCC[C@H](C(=O)O)C2)C(=O)CC(=O)N(CC(C)(C)C)c2ccc(Cl)cc21 (some centres undefined) | > 600
8 | CCOC(=O)C1CCCN(C(=O)N2CCCOC(c3ccccc3OC)c3cc(Cl)ccc3N(CC(C)(C)C)C(=O)C2)C1 (centres undefined) | > 600
9 | COc1ccccc1C1OCCN(CC(=O)N2CCC(C(=O)O)CC2)C(=O)CC(=O)N(CC(C)(C)C)c2ccc(Cl)cc21 (centres undefined) | > 600
10 | CCOC(=O)[C@H]1CC[C@H](N2CCOC(c3ccccc3OC)c3cc(Cl)ccc3N(CC(C)(C)C)C(=O)CC2=O)CC1 (some centres undefined) | 16
11 | CCOC(=O)[C@@H]1CCC[C@H](N2CCOC(c3ccccc3OC)c3cc(Cl)ccc3N(CC(C)(C)C)C(=O)CC2=O)C1 (some centres undefined) | 17
12 | COc1ccccc1[C@@H]1OCCCN(C(=O)N2CCC(CC(=O)O)CC2)CC(=O)N(CC(C)(C)C)c2ccc(Cl)cc21 | 1400
13 | CCOC(=O)C1CCCN(C(=O)CN2CCOC(c3ccccc3OC)c3cc(Cl)ccc3N(CC(C)(C)C)C(=O)CC2=O)C1 (centres undefined) | 64
14 | COc1ccccc1C1OCCN(CC(=O)N2CCCC(C(=O)O)C2)C(=O)CC(=O)N(CC(C)(C)C)c2ccc(Cl)cc21 (centres undefined) | > 600
15 | COc1ccccc1C1OCCC(=O)N(CC(=O)O)CC(=O)N(CC(C)(C)C)c2ccc(Cl)cc21 (centres undefined) | > 600
16 | COc1ccccc1C1OCCNCCC(=O)N(CC(C)(C)C)c2ccc(Cl)cc21 (centres undefined) | > 600
17 | COc1ccccc1C1OCCN([C@@H]2CCC[C@H](C(=O)O)C2)C(=O)CC(=O)N(CC(C)(C)C)c2ccc(Cl)cc21 (some centres undefined) | 4.7
18 | CCOC(=O)C1CCCN(C(=O)CN2CC(=O)N(CC(C)(C)C)c3ccc(Cl)cc3C(c3ccccc3OC)OCCC2=O)C1 (centres undefined) | > 600
19 | COc1ccccc1C1OCCC(=O)N(CC(=O)N2CCCC(C(=O)O)C2)CC(=O)N(CC(C)(C)C)c2ccc(Cl)cc21 (centres undefined) | > 600
20 | COc1ccccc1C1OCCN(C(=O)C(=O)O)CCC(=O)N(CC(C)(C)C)c2ccc(Cl)cc21 (centres undefined) | > 600
21 | COc1ccccc1C1OCCCNCC(=O)N(CC(C)(C)C)c2ccc(Cl)cc21 (centres undefined) | > 600
22 | CCOC(=O)[C@@H]1CCC[C@@H](N2CCOC(c3ccccc3OC)c3cc(Cl)ccc3N(CC(C)(C)C)C(=O)CC2=O)C1 (some centres undefined) | 19
23 | COc1ccccc1C1OCCCN(C(=O)N2CCC(C(=O)O)CC2)CC(=O)N(CC(C)(C)C)c2ccc(Cl)cc21 (centres undefined) | 12
24 | COc1ccccc1C1OCCN([C@@H]2CCC[C@@H](C(=O)O)C2)C(=O)CC(=O)N(CC(C)(C)C)c2ccc(Cl)cc21 (some centres undefined) | 4
25 | COc1ccccc1C1OCCN(CC(=O)O)C(=O)CC(=O)N(CC(C)(C)C)c2ccc(Cl)cc21 (centres undefined) | > 600
26 | COc1ccccc1C1OCCN(C2CCCN(C(=O)C(=O)O)C2)C(=O)CC(=O)N(CC(C)(C)C)c2ccc(Cl)cc21 (centres undefined) | 21

Row | Structure (SMILES) | IC50 [nM]
27 | COc1ccccc1C1OCCN(C(=O)C(F)(F)F)CCC(=O)N(CC(C)(C)C)c2ccc(Cl)cc21 (centres undefined) | > 600
28 | CCOC(=O)C(=O)N1CCCOC(c2ccccc2OC)c2cc(Cl)ccc2N(CC(C)(C)C)C(=O)C1 (centres undefined) | > 600
29 | CCOC(=O)C(=O)N1CCC(N2CCOC(c3ccccc3OC)c3cc(Cl)ccc3N(CC(C)(C)C)C(=O)CC2=O)CC1 (centres undefined) | 25
30 | COc1ccccc1C1OCCCN(C(=O)N2CCCC(C(=O)O)C2)CC(=O)N(CC(C)(C)C)c2ccc(Cl)cc21 (centres undefined) | 170
31 | COc1ccccc1C1OCCCN(S(=O)(=O)c2ccccc2[N+](=O)[O-])CC(=O)N(CC(C)(C)C)c2ccc(Cl)cc21 (centres undefined) | > 600
32 | CCOC(=O)C1CCN(C(=O)N2CCCOC(c3ccccc3OC)c3cc(Cl)ccc3N(CC(C)(C)C)C(=O)C2)CC1 (centres undefined) | 47
33 | COc1ccccc1C1OCC(=O)NCCC(=O)N(CC(C)(C)C)c2ccc(Cl)cc21 (centres undefined) | > 600
34 | CCOC(=O)[C@H]1CCC[C@@H](N2CCOC(c3ccccc3OC)c3cc(Cl)ccc3N(CC(C)(C)C)C(=O)CC2=O)C1 (some centres undefined) | 18
35 | CCOC(=O)C1CCN(C(=O)CN2CCOC(c3ccccc3OC)c3cc(Cl)ccc3N(CC(C)(C)C)C(=O)CC2=O)CC1 (centres undefined) | 390
36 | COc1ccccc1C1OCCN(C2CCC(C(=O)O)CC2)C(=O)CC(=O)N(CC(C)(C)C)c2ccc(Cl)cc21 (centres undefined) | 46
37 | CCOC(=O)[C@H]1CC[C@@H](N2CCOC(c3ccccc3OC)c3cc(Cl)ccc3N(CC(C)(C)C)C(=O)CC2=O)CC1 (some centres undefined) | 26
38 | COc1ccccc1C1OCCC(=O)N(CC(=O)N2CCC(C(=O)O)CC2)CC(=O)N(CC(C)(C)C)c2ccc(Cl)cc21 (centres undefined) | > 600
39 | CCOC(=O)C(=O)N1CCCC(N2CCOC(c3ccccc3OC)c3cc(Cl)ccc3N(CC(C)(C)C)C(=O)CC2=O)C1 (centres undefined) | 14
40 | CCOC(=O)[C@H]1CCC[C@H](N2CCOC(c3ccccc3OC)c3cc(Cl)ccc3N(CC(C)(C)C)C(=O)CC2=O)C1 (some centres undefined) | 54
41 | COc1ccccc1C1OCC(=O)N(CC(=O)O)CCC(=O)N(CC(C)(C)C)c2ccc(Cl)cc21 (centres undefined) | > 600
42 | CCOC(=O)CC1CCN(C(=O)N2CCCOC(c3ccccc3OC)c3cc(Cl)ccc3N(CC(C)(C)C)C(=O)C2)CC1 (centres undefined) | 20
43 | COc1ccccc1[C@H]1OCCCN(C(=O)N2CCC(CC(=O)O)CC2)CC(=O)N(CC(C)(C)C)c2ccc(Cl)cc21 | 4.4
44 | COc1ccccc1[C@@H](O)c1cc(Cl)ccc1N(CC(C)(C)C)C(=O)CCC(=O)N1CCC[C@H](C(=O)O)C1 | 0.6
45 | COc1ccccc1C1OCCN(C2CCN(C(=O)C(=O)O)CC2)C(=O)CC(=O)N(CC(C)(C)C)c2ccc(Cl)cc21 (centres undefined) | > 600
46 | CCOC(=O)CN1CCOC(c2ccccc2OC)c2cc(Cl)ccc2N(CC(C)(C)C)C(=O)CC1=O (centres undefined) | 140
47 | CCOC(=O)CN1CC(=O)N(CC(C)(C)C)c2ccc(Cl)cc2C(c2ccccc2OC)OCCC1=O (centres undefined) | > 600
48 | CCOC(=O)CN1CCC(=O)N(CC(C)(C)C)c2ccc(Cl)cc2C(c2ccccc2OC)OCC1=O (centres undefined) | > 600
49 | COc1ccccc1C1OCCN([C@H]2CCC[C@@H](C(=O)O)C2)C(=O)CC(=O)N(CC(C)(C)C)c2ccc(Cl)cc21 (some centres undefined) | > 600
50 | COc1ccccc1C1OCCCN(C(=O)N2CCC(CC(=O)O)CC2)CC(=O)N(CC(C)(C)C)c2ccc(Cl)cc21 (centres undefined) | 7
51 | CCOC(=O)C(=O)N1CCOC(c2ccccc2OC)c2cc(Cl)ccc2N(CC(C)(C)C)C(=O)CC1 (centres undefined) | > 600

tested on: Hepatocyte; assay: Inhibition of cholesterol biosynthesis in rat hepatocytes preincubated for 1 hr followed by [14C]mevalonolactone addition and measured after 1 hr by liquid scintillation counter analysis; assay type: functional, cell-based; settings: not given

Row | Structure (SMILES) | IC50 [nM]
52 | COc1ccccc1[C@@H]1OCCCN(C(=O)N2CCC(CC(=O)O)CC2)CC(=O)N(CC(C)(C)C)c2ccc(Cl)cc21 | > 3000
53 | COc1ccccc1[C@H]1OCCCN(C(=O)N2CCC(CC(=O)O)CC2)CC(=O)N(CC(C)(C)C)c2ccc(Cl)cc21 | 120
54 | COc1ccccc1[C@@H](O)c1cc(Cl)ccc1N(CC(C)(C)C)C(=O)CCC(=O)N1CCC[C@H](C(=O)O)C1 | 120

tested on: not listed separately; assay: Effect on triglyceride level in hamster assessed as increase in triglyceride level in serum at 100 mg/kg, po bid administered at 9 a.m and 4 p.m for 14 days relative to control; assay type: functional, Cricetinae; settings: time 14 day

Row | Structure (SMILES) | Activity [%]
55 | COc1cccc([C@H]2O[C@H](CC(=O)N3CCC(CC(=O)O)CC3)C(=O)N(CC(C)(C)CO)c3ccc(Cl)cc32)c1OC | 8

tested on: marmosets; assay: Lipid lowering effect in chow diet fed marmosets assessed as reduction in total cholesterol level in serum at 10 mg/kg, po qd administered once a day to 9 to 10 a.m for 7 days relative to control; assay type: functional, Callitrichinae sp.; set-up: scale not given: the % may be the effect or the level left; settings: time 7 day

Row | Structure (SMILES) | Activity [%]
56 | COc1cccc([C@H]2O[C@H](CC(=O)N3CCC(CC(=O)O)CC3)C(=O)N(CC(C)(C)CO)c3ccc(Cl)cc32)c1OC | 24

tested on: marmosets; assay: Lipid lowering effect in chow diet fed marmosets assessed as reduction in non-HDL level in serum at 10 mg/kg, po qd administered once a day to 9 to 10 a.m for 7 days relative to control; assay type: functional, Callitrichinae sp.; set-up: scale not given: the % may be the effect or the level left; settings: time 7 day

Row | Structure (SMILES) | Activity [%]
57 | COc1cccc([C@H]2O[C@H](CC(=O)N3CCC(CC(=O)O)CC3)C(=O)N(CC(C)(C)CO)c3ccc(Cl)cc32)c1OC | 34

tested on: marmosets; assay: Lipid lowering effect in chow diet fed marmosets assessed as reduction in HDL level in serum at 10 mg/kg, po qd administered once a day to 9 to 10 a.m for 7 days relative to control; assay type: functional, Callitrichinae sp.; set-up: scale not given: the % may be the effect or the level left; settings: time 7 day

Row | Structure (SMILES) | Activity [%]
58 | COc1cccc([C@H]2O[C@H](CC(=O)N3CCC(CC(=O)O)CC3)C(=O)N(CC(C)(C)CO)c3ccc(Cl)cc32)c1OC | 3

tested on: marmosets; assay: Lipid lowering effect in chow diet fed marmosets assessed as reduction in triglyceride level in serum at 10 mg/kg, po qd administered once a day to 9 to 10 a.m for 7 days relative to control; assay type: functional, Callitrichinae sp.; set-up: scale not given: the % may be the effect or the level left; settings: time 7 day

Row | Structure (SMILES) | Activity [%]
59 | COc1cccc([C@H]2O[C@H](CC(=O)N3CCC(CC(=O)O)CC3)C(=O)N(CC(C)(C)CO)c3ccc(Cl)cc32)c1OC | 38
